Data as given in PMC10120551, “Novel Glu-based pyrazolo[3,4-d]pyrimidine analogues: design, synthesis and biological evaluation as DHFR and TS dual inhibitors” (Journal of Enzyme Inhibition and Medicinal Chemistry, 2023).

How the values were obtained:
Assay in all cases: NCI one-dose screen (SRB)
Assay type in all cases: cell-based, human
[1] = system: UACC-62; conditions: UACC-62, Melanoma; 10 µM single dose
Description: (§1) The growth percentage (G%) and cell viability of the herein target compounds 6a–l, 7a,b, and 9a–c have been screened towards a full panel of 59 cancer cells at NCI’s Developmental Therapeutics Program (NCI-DTP, MD, USA)[21]. The submitted analogues were initially examined for preliminary in vitro anticancer activity using sulforhodamine B (SRB) assay at 10 µM as a single dose to evaluate cell growth and viability according to the procedure of Drug Evaluation Branch[22]^,[23].
(§2) Different types of tumours – colon, NSCLC, leukaemia, CNS, renal, breast, ovarian, melanoma, and prostate cancers – were investigated as a full panel of 59 cell lines, and the attained results are cited in Figures S1–S17 (see Supplementary Material) where the value recorded is the growth relative to that of both the negative control and zero-time number of cells in which both growth inhibition (GI%; 0–100%) and lethality (L%; 0–100%) percentages can be identified. The growth inhibition means percentages (MGI%) for the examined target analogues towards the different treated 59 cancer cells were presented in Figure 2.
(§3) The designed analogues were submitted to NCI-Chemotherapeutic Agents Repository (MD, USA) for screening on a panel of 59 cancer cell lines. All compounds were initially examined at 10 µM concentration (Single-Dose Screen), and then the most efficient analogue 6i was screened further at 0.01–100 µM (Five-Dose Screen). The screening procedures were performed according to NCI-Drug Evaluation Branch protocol using SRB protein assay, as described previously[21]^,[66]. The experimental procedures were detailed in the Supporting Information.

[2] = system: MCF7; conditions: MCF7, Breast; 10 µM single dose
Description: as §1, §2, §3

[3] = system: CCRF-CEM; conditions: Leukaemia, 10 µM single dose
Description: as §1, §2, §3

[4] = system: COLO 205; conditions: COLO 205, Colon cancer; 10 µM single dose
Description: as §1, §2, §3

[5] = system: RPMI-8226; conditions: RPMI-8226, Leukaemia; 10 µM single dose
Description: as §1, §2, §3

[6] = system: 786-0; conditions: 786-0, Renal; 10 µM single dose
Description: as §1, §2, §3

[7] = system: SN12C; conditions: Renal cancer, 10 µM single dose
Description: as §1, §2, §3

[8] = system: M14; conditions: M14, Melanoma; 10 µM single dose
Description: as §1, §2, §3

[9] = system: MDA-MB-468; conditions: MDA-MB-468, Breast; 10 µM single dose
Description: as §1, §2, §3

[10] = system: SK-MEL-5; conditions: SK-MEL-5, Melanoma; 10 µM single dose
Description: as §1, §2, §3

[11] = system: SW-620; conditions: SW-620, Colon cancer; 10 µM single dose
Description: as §1, §2, §3

[12] = system: PC-3; conditions: PC-3, Prostate; 10 µM single dose
Description: as §1, §2, §3

[13] = system: SK-MEL-28; conditions: SK-MEL-28, Melanoma; 10 µM single dose
Description: as §1, §2, §3

[14] = system: HOP-62; conditions: HOP-62, NSCLC; 10 µM single dose
Description: as §1, §2, §3

[15] = system: A549/ATCC; conditions: NSCLC, 10 µM single dose
Description: as §1, §2, §3

[16] = system: LOX IMVI; conditions: Melanoma, 10 µM single dose
Description: as §1, §2, §3

[17] = system: SNB-19; conditions: SNB-19, CNS cancer; 10 µM single dose
Description: as §1, §2, §3

[18] = system: OVCAR-8; conditions: OVCAR-8, Ovarian; 10 µM single dose
Description: as §1, §2, §3

[19] = system: NCI-H23; conditions: NCI-H23, NSCLC; 10 µM single dose
Description: as §1, §2, §3

[20] = system: HCT-116; conditions: HCT-116, Colon cancer; 10 µM single dose
Description: as §1, §2, §3

[21] = system: HT29; conditions: HT29, Colon cancer; 10 µM single dose
Description: as §1, §2, §3

[22] = system: HOP-92; conditions: HOP-92, NSCLC; 10 µM single dose
Description: as §1, §2, §3

[23] = system: U251; conditions: U251, CNS cancer; 10 µM single dose
Description: as §1, §2, §3

[24] = system: BT-549; conditions: BT-549, Breast cancer; 10 µM single dose
Description: as §1, §2, §3

[25] = system: EKVX; conditions: NSCLC, 10 µM single dose
Description: as §1, §2, §3

[26] = system: SF-295; conditions: SF-295, CNS; 10 µM single dose
Description: as §1, §2, §3

[27] = system: NCI-H522; conditions: NCI-H522, NSCLC; 10 µM single dose
Description: as §1, §2, §3

[28] = system: RXF 393; conditions: RXF 393, Renal; 10 µM single dose
Description: as §1, §2, §3

[29] = system: SF-539; conditions: SF-539, CNS cancer; 10 µM single dose
Description: as §1, §2, §3

[30] = system: OVCAR-3; conditions: OVCAR-3, Ovarian; 10 µM single dose
Description: as §1, §2, §3

[31] = system: NCI/ADR-RES; conditions: Ovarian cancer, 10 µM single dose
Description: as §1, §2, §3

[32] = system: SF-268; conditions: SF-268, CNS; 10 µM single dose
Description: as §1, §2, §3

[33] = system: DU-145; conditions: DU-145, Prostate; 10 µM single dose
Description: as §1, §2, §3

SMILES: CCOC(=O)CC[C@H](NC(=O)c1ccc(NC(=O)Cn2cnc3c(c(C)nn3-c3ccc(Br)cc3)c2=O)cc1)C(=O)OCC [Compound 6i]
- GI% [1]: 63.82%
- GI% [2]: 97.72%
- GI% [3]: 70.05%
- GI% [4]: 71.69%
- GI% [5]: 53.52%
- GI% [6]: 82.93%
- GI% [7]: 57.69%
- GI% [8]: 74.15%
- GI% [9]: 92.44%
- L% (lethality) [10]: 1.38%
- GI% [11]: 62.17%
- GI% [12]: 91.71%
- GI% [13]: 75.54%
- L% (lethality) [14]: 8.41%
- GI% [15]: 71.36%
- GI% [16]: 78.49%
- GI% [17]: 61.23%
- GI% [18]: 87.86%
- GI% [19]: 87.19%
- GI% [20]: 70.04%
- GI% [21]: 59.90%
- GI% [22]: 78.29%
- GI% [23]: 53.30%
- GI% [24]: 66.64%
- GI% [25]: 78.12%
- GI% [26]: 89.78%
- GI% [27]: 52.34%
- L% (lethality) [28]: 22.73%
- GI% [29]: 54.23%
- GI% [30]: 96.83%
- GI% [31]: 51.78%
- GI% [32]: 85.11%
- GI% [33]: 85.62%
